Patent US11679167B2, “Ophthalmic compositions, and ocular uses thereof, of indigo carmine” (priority 2018, dated 2023)
“Also recorded” adds a separate entry of the source.

Experiments:
[1] = system: ocular surface squamous neoplastic lesion; assay: Topical application of dye to a human eye, slit lamp view; format: in vivo
From the text: FIG. 8 is a slit lamp view of a human eye wherein an ocular surface squamous neoplastic lesion is delineated after topical application of Indigo Carmine. A blue outline is seen around the perimeter of the white ocular surface squamous neoplastic lesion.

eye bank eyes = assay: Dye solution instilled by injection into the anterior chamber of eye bank eyes; staining and outflow seen by naked eye or operating microscope; design: species or system human; conditions: for Appearance (egress) of dye in the outflow vessels after injection into the anterior chamber: human eye bank eyes, Indigo Carmine 0.004, 0.04 and 0.4 wt. %
From the text: After an incision is made into the anterior chamber of the eye, a small amount of aqueous humor is expressed and the dye solution is instilled by injection into the anterior chamber. The dye solution is typically left in place for 30 seconds, during which time it stains the anterior capsule of the lens. Excess dye solution is then expelled, usually using a viscoelastic device or flushed out with a balanced salt solution.
Dye solutions containing 0.004 wt. %, 0.04 wt. %, and 0.4 wt. % of Indigo Carmine (prepared by serial dilutions of a 0.4 wt. % Indigo Carmine solution provided by Micro-Tech (Nanjing) Co.) were instilled by injection into the anterior chamber of seven eye bank eyes following the dye solution instillation procedure detailed above.
Special imaging techniques were not required.

[2] = sodium salt; cited from earlier work
porcine eye = assay: Dye injected into the lenticular plain after Small Incision Lenticule Extraction (SMILE)
From the text: FIG. 9A is an operating microscope view of a porcine eye upon which a Small Incision Lenticule Extraction procedure (SMILE) has been carried out. From this view, circular horizontal plains have been cut in the corneal stroma, a superficial smaller diameter cut and a deeper cut of larger diameter. The cuts join in the corneal periphery, thereby creating a lenticule. The arrows show the edge of these cuts.
FIG. 9B is an operating microscope view of a porcine eye upon which a Small Incision Lenticule Extraction procedure (SMILE) has been carried out. Indigo Carmine has been injected into the lenticular plain.

[3] = cited from earlier work
ocular structures = conditions: cited from earlier work
anterior capsule = conditions: cited from earlier work
[4] = anterior chamber perfused or injected with dye solution, sodium salt

O=C1C(=C2Nc3ccc(S(=O)(=O)[O-])cc3C2=O)Nc2ccc(S(=O)(=O)[O-])cc21.[Na+].[Na+] [Indigo Carmine, 5,5′-indigodisulfonic acid sodium salt]
Delineation of ocular surface squamous neoplastic lesion [1]: delineated | Diffusion of dye through tissues (eye bank eyes): generally does not diffuse through tissues | Staining of the canal of Schlemm (eye bank eyes; [4]): stains heavily; also recorded: heavy staining of Schlemm's canal | Staining of the trabecular meshwork (eye bank eyes; [4]): stains the trabecular meshwork lightly; also recorded: more lightly stained | Visibility of dye in the collector channels on the surface of the eye after passing through the drainage system (eye bank eyes; at each concentration: 0.004 wt. %, 0.04 wt. %, 0.4 wt. %): visible to the naked eye of the surgeon | Appearance (egress) of dye in the outflow vessels after injection into the anterior chamber (eye bank eyes; sodium salt): appeared in the fine vessels in the conjunctiva adjacent to the limbus, the aqueous veins and the conjunctival venous system; also recorded: some of the dye exiting the eye through the aqueous veins | Staining of the anterior capsule of the lens (eye bank eyes; injection via small corneal incision, capsulorhexis procedure, sodium salt): stain the anterior capsule of the crystalline lens; also recorded: lightly stained | Visibility of dye on the surface of the instilled eye (eye bank eyes; no special imaging techniques, standard operating microscope): easily visible to the naked eye of the surgeon | Dye in the deep scleral plexus (eye bank eyes; once the conjunctiva was reflected away, sodium salt): observed in the deep scleral plexus; also recorded: deeper vessels are seen | Protein binding [2]: low protein binding; also recorded: relatively reduced protein binding | Identification of the lenticule edge (porcine eye): white arrows indicate the complete circular edge of the lenticule | Solubility in water [3]: soluble in water

CC1(C)C(/C=C/C=C/C=C/C=C2\N(CCCCS(=O)(=O)O)c3ccc4ccccc4c3C2(C)C)=[N+](CCCCS(=O)(=O)[O-])c2ccc3ccccc3c21 [Indocyanine Green]
Appearance (egress) of dye in the outflow vessels after injection into the anterior chamber (eye bank eyes): the dye appears to remain within the eye

CCN(CC)c1ccc(C(=C2C=CC(=[N+](CC)CC)C=C2)c2cc(O)c(S(=O)(=O)O)cc2S(=O)(=O)O)cc1 [Patent Blue]
Appearance (egress) of dye in the outflow vessels after injection into the anterior chamber (eye bank eyes): the dye appears to remain within the eye

Cc1cc(-c2ccc(/N=N/c3c(S(=O)(=O)O)cc4cc(S(=O)(=O)O)cc(N)c4c3O)c(C)c2)ccc1/N=N/c1c(S(=O)(=O)O)cc2cc(S(=O)(=O)O)cc(N)c2c1O [Trypan Blue]
Appearance (egress) of dye in the outflow vessels after injection into the anterior chamber (eye bank eyes): the dye appears to remain within the eye | Identifying and visualizing anterior lens capsule and trabecular meshwork (ocular structures): effective | Identifying or visualizing the canal of Schlemm (ocular structures): not effective | Lowest concentration at which staining of the anterior capsule occurs (anterior capsule): ≥ 0.0125 wt. %

Brilliant Blue
Appearance (egress) of dye in the outflow vessels after injection into the anterior chamber (eye bank eyes): the dye appears to remain within the eye
